Data as given in US10238633B2, “Methods for treating pulmonary emphysema using substituted 2-Aza-bicyclo[2.2.1]heptane-3-carboxylic acid (benzyl-cyano-methyl)-amides inhibitors of Cathepsin C” (Boehringer Ingelheim International GmbH, priority 2013, dated 2019).

Tested on: Neutrophil elastase activity in U937 cells
Assay: Determination of neutrophil elastase activity in U937 cytosolic lysate preparation after incubation with test compound
Format: cell-based
Conditions: Homo sapiens, U-937, read-out: Reduction of NE-activity in U937 cells IC50
Method: Determination of Neutrophil Elastase Activity in U937 Cytosolic Lysate Preparation after Incubation with Test Compound
Optiplate 384F were purchased from PerkinElmer (Prod. No. #6007270). 24 well Nunclon cell culture plates (No. 142475) and 96 well plates (No. 267245) were from Nunc. Dimethylsulfoxid (DMSO) was from Sigma (Prod. No. D8418). Nonidet-P40 (NP40) was from USBiological (Prod. No. N3500)
Substrate, specific for Neutrophil elastase, was from Bachem (MeOSuc-Ala-Ala-Pro-Val-AMC; Prod. No. 1-1270).
Human neutrophil elastase was from Calbiochem (Prod. No. 324681)
Tris-buffer (100 mM Tris; 1M NaCL; pH 7.5)
Tris-buffer+HSA 0.1%; Human Serum Albumin from Calbiochem (Cat#. 126658)
Serine-protease buffer (20 mM Tris; 100 mM NaCL; pH 7.5)+0.1% HSA
Serine protease lysis buffer: 20 mM Tris-HCL; 100 mM NaCl pH 7.5; +0.2% Nonidet-P40;
PBS: phosphate buffered saline, without Ca and Mg, from Gibco
U937 from ECACC (Cat. No. 85011440) cultured in suspension at 37° C. and 5% CO2.
Cell density: 0.2-1 Mio. Cells/ml.
Medium: RPMI1640 GlutaMAX (No. 61870) with 10% FCS from Gibco
Cell Seeding and Treatment:
Compounds in 100% DMSO were diluted in Medium (—FCS) with 10% DMSO and further diluted according to the experiment planned.
20 μl of the compound solution was transferred in the respective wells of the 24 well plate and diluted with 2 ml cell suspension/well containing […] (final concentration of DMSO=0.1%). Compound dilution factor=100
Compounds (up to 7 concentrations) were tested in triplicates with 3 wells for the DMSO 0.1% control, incubated for 48 hours without medium change at 37° C., 5% CO2 and 95% relative humidity.
Cell Harvesting and Cell Lysate:
Transfer the cell suspension in 2.2 ml Eppendorf cups. Separate cells from medium by centrifugation (400×g; 5 min; RT); discard the supernatant. Resuspend in 1 ml PBS; centrifugation (400×g; 5 min; RT); wash cells twice with PBS. Add 100 μl Serin lysis buffer (ice cold) to the cell pellet; resuspend the pellet and store on ice for 15 minutes. Remove debris by centrifugation at 15000×g for 10 min at 4° C. Transfer 80-100 μl lysate supernatant in 96 well plate and store immediately at −80° C.
Neutrophil Elastase Activity Assay:
Frozen lysates were thawn at 37° C. for 10 minutes and stored on ice. Protein content was determined with Bradford protein assay. Lysates were diluted to 0.2-0.5 mg/ml protein in serine protease buffer+HSA.
Standard: NE (100 μg/ml stock solution in Tris-buffer; stored at −80° C.) was diluted in Tris-buffer+HSA to 750 ng/ml, and further serially diluted 1:2 for the standard curve.
Buffer, blank, standard and lysate samples were transferred into 384 well plate
Blank: 5 μl Tris-buffer+10 μl Tris-buffer+HSA+5 μl Substrate
Standard: 5 μl Tris-buffer+10 μl NE (diff. conc.)+5 μl Substrate
Lysate: 5 μl Tris-buffer+10 μl Lysat+[…] Substrate
The increase in fluorescence (Ex360 nm/Em 460 nm) is determined over 30 minutes with a Molecular Device Spectramax M5 Fluorescence Reader. Kinetic Reduction (Vmax units/sec); 4 vmax points. The amount of neutrophil elastase (ng/ml) is calculated using the standard curve and the Spectramax software. The result is interpolated to ng/mg lysate protein using excel formula functions. […] IC50 is calculated using Graphpad Prism; nonlinear fitting (log(inhibitor) vs. response—Variable slope).

SMILES	IC50
N#C[C@H](Cc1ccc(C2=CCN3CCOCC3C2)cc1F)NC(=O)[C@H]1N[C@@H]2CC[C@H]1C2 (stereo partly shown) [Example 281]	1.9 nM
N#C[C@H](Cc1ccc(N2CCN(C3CC3)CC2)cc1F)NC(=O)[C@H]1N[C@@H]2CC[C@H]1C2 [Example 187]	7.3 nM
CN1Cc2cc(-c3ccc(C[C@@H](C#N)NC(=O)[C@H]4N[C@@H]5CC[C@H]4C5)c(F)c3)ccc2S1(=O)=O [Example 169]	9.1 nM
N#CC(Cc1ccc2c(c1)c(=O)[nH]c1c(F)c(F)ccc12)NC(=O)[C@H]1N[C@@H]2CC[C@H]1C2 (stereo partly shown) [Example 300]	8.9 nM
N#C[C@H](Cc1ccc(N2CCN(C3CCOC3)CC2)cc1F)NC(=O)[C@H]1N[C@@H]2CC[C@H]1C2 (stereo partly shown) [Example 331]	6 nM
CC1CN(c2ccc(C[C@@H](C#N)NC(=O)[C@H]3N[C@@H]4CC[C@H]3C4)c(F)c2)C(C)CN1C (stereo partly shown) [Example 196]	5.3 nM
COCCN1C(=O)Cc2ccc(-c3ccc(C[C@@H](C#N)NC(=O)[C@H]4N[C@@H]5CC[C@H]4C5)c(F)c3)cc21 [Example 158]	8.8 nM
CC(C)N1CCN(C(=O)c2cc(-c3ccc(C[C@@H](C#N)NC(=O)[C@H]4N[C@@H]5CC[C@H]4C5)c(F)c3)cs2)CC1 [Example 227]	0.9 nM
CN1CCN(C(=O)c2ccc(-c3ccc(C[C@@H](C#N)NC(=O)[C@H]4N[C@@H]5CC[C@H]4C5)c(F)c3)o2)CC1 [Example 289]	3.9 nM
N#C[C@H](Cc1ccc(-c2ccc3c(c2)NC(=O)C3)cc1F)NC(=O)[C@H]1N[C@@H]2CC[C@H]1C2 [Example 29]	8.8 nM
CC(C)N1CCCN(c2ccc(C[C@@H](C#N)NC(=O)[C@H]3N[C@@H]4CC[C@H]3C4)c(F)c2)CC1 [Example 267]	2.7 nM
CN1CCN(S(=O)(=O)c2cccc(-c3ccc(C[C@@H](C#N)NC(=O)[C@H]4N[C@@H]5CC[C@H]4C5)c(F)c3)c2)CC1 [Example 224]	1 nM
CN1C2CCC1CN(c1ccc(C[C@@H](C#N)NC(=O)[C@H]3N[C@@H]4CC[C@H]3C4)c(F)c1)C2 [Example 333]	4.7 nM
N#C[C@H](Cc1ccc(-c2ccc(=O)n(CC(F)F)c2)cc1F)NC(=O)[C@H]1N[C@@H]2CC[C@H]1C2 [Example 343]	16.9 nM
CNc1nc2cc(-c3ccc(C[C@@H](C#N)NC(=O)[C@H]4N[C@@H]5CC[C@H]4C5)c(F)c3)ccc2n1C [Example 253]	5.5 nM
N#C[C@H](Cc1cc2c(=O)[nH]c3cc(F)ccc3c2cc1F)NC(=O)[C@H]1N[C@@H]2CC[C@H]1C2 [Example 323]	1.4 nM
CN1Cc2ccc(-c3ccc(C[C@@H](C#N)NC(=O)[C@H]4N[C@@H]5CC[C@H]4C5)c(F)c3)cc2C1 [Example 1, (1S,2S,4R)—N-[(1S)-1-cyano-2-[2-fluoro-4-(2-methylisoindolin-5-yl)phenyl]ethyl]-3-azabicyclo[2.2.1]heptane-2-carboxamide]	2.3 nM
Cn1c(=O)c2cc(CC(C#N)NC(=O)[C@H]3N[C@@H]4CC[C@H]3C4)ccc2c2ccc(C#N)cc21 (stereo partly shown) [Example 303]	8.3 nM
CC1CN(C)CCN1c1ccc(C[C@@H](C#N)NC(=O)[C@H]2N[C@@H]3CC[C@H]2C3)c(F)c1 (stereo partly shown) [Example 192]	4.1 nM
N#CC(Cc1ccc(-c2ccc3c(c2)COC3=O)cc1F)NC(=O)[C@H]1N[C@@H]2CC[C@H]1C2 (stereo partly shown) [Example 11]	8.7 nM
N#C[C@H](Cc1ccc(N2C3CCC2CN(C2CCOC2)C3)cc1F)NC(=O)[C@H]1N[C@@H]2CC[C@H]1C2 (stereo partly shown) [Example 329]	2.5 nM
CO[C@@H]1C[C@@H]2CN(c3ccc(C[C@@H](C#N)NC(=O)[C@H]4N[C@@H]5CC[C@H]4C5)c(F)c3)CCN2C1 [Example 269]	5.5 nM
N#C[C@H](Cc1ccc(C2=CCN(C3CCOC3)CC2)cc1F)NC(=O)[C@H]1N[C@@H]2CC[C@H]1C2 (stereo partly shown) [Example 332]	5.8 nM

More lines, in order of falling IC50, values ahead:

IC50	SMILES
37.7 nM	CN1CC2(C1)CN(c1ccc(C[C@@H](C#N)NC(=O)[C@H]3N[C@@H]4CC[C@H]3C4)c(F)c1)C2 [Example 330]
30.5 nM	Cn1cc(-c2ccc(C[C@@H](C#N)NC(=O)[C@H]3N[C@@H]4CC[C@H]3C4)c(F)c2)ccc1=O [Example 254]
14.5 nM	CS(=O)(=O)c1ccc(-c2ccc(C[C@@H](C#N)NC(=O)[C@H]3N[C@@H]4CC[C@H]3C4)c(F)c2)cc1 [Example 16]
9.6 nM	N#C[C@H](Cc1ccc(-c2ccc(C(=O)N3CCn4nccc4C3)s2)cc1F)NC(=O)[C@H]1N[C@@H]2CC[C@H]1C2 [Example 237]
6.5 nM	N#C[C@H](Cc1ccc(N2CCC(N3CCOCC3)CC2)cc1F)NC(=O)[C@H]1N[C@@H]2CC[C@H]1C2 [Example 193]
6.4 nM	CS(=O)(=O)c1cccc(-c2ccc(C[C@@H](C#N)NC(=O)[C@H]3N[C@@H]4CC[C@H]3C4)c(F)c2)c1 [Example 4, (1S,2S,4R)—N-[(1S)-1-cyano-2-[2-fluoro-4-(3-methylsulfonylphenyl)phenyl]ethyl]-3-azabicyclo[2.2.1]heptane-2-carboxamide]
6.2 nM	CN1C(=O)Cc2ccc(-c3ccc(C[C@@H](C#N)NC(=O)[C@H]4N[C@@H]5CC[C@H]4C5)c(F)c3)cc21 [Example 2, (1S,2S,4R)—N-[(1S)-1-cyano-2-[2-fluoro-4-(1-methyl-2-oxo-indolin-6-yl)phenyl]ethyl]-3-azabicyclo[2.2.1]heptane-2-carboxamide]
5.2 nM	N#C[C@H](Cc1ccc(-c2csc(C(=O)N3CCN(CC(F)(F)F)CC3)c2)cc1F)NC(=O)[C@H]1N[C@@H]2CC[C@H]1C2 [Example 232]
4.6 nM	COCCN1CCN(C(=O)c2cc(-c3ccc(C[C@@H](C#N)NC(=O)[C@H]4N[C@@H]5CC[C@H]4C5)c(F)c3)cs2)CC1 [Example 228]
4.1 nM	CN(C)C1CCCN(c2ccc(C[C@@H](C#N)NC(=O)[C@H]3N[C@@H]4CC[C@H]3C4)c(F)c2)C1 (stereo partly drawn) [Example 344, (1S,2S,4R)—N-[(1S)-1-cyano-2-[4-[3-(dimethylamino)-1-piperidyl]-2-fluoro-phenyl]ethyl]-3-azabicyclo[2.2.1]heptane-2-carboxamide]
3.9 nM	CN1CCN(C(=O)c2ccc(-c3ccc(C[C@@H](C#N)NC(=O)[C@H]4N[C@@H]5CC[C@H]4C5)c(F)c3)cc2)CC1 [Example 185]
3.8 nM	CN1CCN(C(=O)c2cccc(-c3ccc(C[C@@H](C#N)NC(=O)[C@H]4N[C@@H]5CC[C@H]4C5)c(F)c3)c2)CC1 [Example 245]
3.7 nM	CN1CCC2(CC1)CC(c1ccc(C[C@@H](C#N)NC(=O)[C@H]3N[C@@H]4CC[C@H]3C4)c(F)c1)C2 [Example 358]
2.8 nM	CN1CCN(C(=O)c2cc(-c3ccc(C[C@@H](C#N)NC(=O)[C@H]4N[C@@H]5CC[C@H]4C5)c(F)c3)cs2)CC1 [Example 225]
2.8 nM	CN1CCC2CN(c3ccc(C[C@@H](C#N)NC(=O)[C@H]4N[C@@H]5CC[C@H]4C5)c(F)c3)CC21 (stereo partly shown) [Example 349]
2.4 nM	CN1CCN(c2ccc(C[C@@H](C#N)NC(=O)[C@H]3N[C@@H]4CC[C@H]3C4)c(F)c2)CC1 [Example 6, (1S,2S,4R)—N-[(1S)-1-cyano-2-[2-fluoro-4-(4-methylpiperazin-1-yl)phenyl]ethyl]-3-azabicyclo[2.2.1]heptane-2-carboxamide]
2.1 nM	N#C[C@H](Cc1cc2c(=O)[nH]c3ccccc3c2cc1F)NC(=O)[C@H]1N[C@@H]2CC[C@H]1C2 [Example 322]
1.9 nM	Cn1c(=O)c2cc(C[C@@H](C#N)NC(=O)[C@H]3N[C@@H]4CC[C@H]3C4)c(F)cc2c2ccccc21 [Example 326]
1.4 nM	N#C[C@H](Cc1ccc(N2CCN3CCC[C@H]3C2)cc1F)NC(=O)[C@H]1N[C@@H]2CC[C@H]1C2 [Example 270]
0.6 nM	CN1CCN(S(=O)(=O)c2cc(-c3ccc(C[C@@H](C#N)NC(=O)[C@H]4N[C@@H]5CC[C@H]4C5)c(F)c3)ccc2F)CC1 [Example 339]
